Earlier results on 1 compound are cited in US9566245B2, “Osmotic drug delivery system” (Supernus Pharmaceuticals, Inc., priority 2006, dated 2017).

For this data set the following is noted: treprostinil as the free acid.

Regarding `CCCCC[C@H](O)CC[C@@H]1[C@H]2Cc3cccc(OCC(=O)O)c3C[C@H]2C[C@H]1O` [treprostinil], the Absolute oral bioavailability entry is given as “less than 10%”.
